# Results from PMC9479156 (Frontiers in Pharmacology, 2022).
# Where two headings read alike, the source gives them in different places.
# Key:
# [1] = test system: LO2 human normal hepatocytes; assay: Cytotoxicity drug combination (isobole) assay LO2; format: cell-based
# Method: For the drug combination inhibitory assays, six drug preparations, of which four comprised combinations of either artemiside or artemisone with celastrol in a fixed ratio of 80:20, 60:40, 40:60, and 20:80 were prepared and screened against HepG2 liver hepatocellular carcinoma and LO2 human normal hepatocytes respectively. Two of these six preparations employed each of artemiside, artemisone or celastrol alone at a concentration approximately 5–7 times higher than the IC50 of the individual drug as presented in Table 4. […] Thus, six combinations for artemiside (µM) and celastrol (µM) prepared were 500:0, 400:4, 300:8, 200:12, 100:16, and 0:20, respectively.
# As above for the malaria combination assays, a mean ΣFIC<1.0 represents a synergistic interaction, >1.3 represents an antagonistic interaction and ΣFIC = 1 represents an indifferent or additive interaction. Additivity, synergism and antagonism were also be established from the linear plots constructed from the FIC values of each of the drugs. A concave hyperbolic plot indicates synergism, a convex hyperbolic plot indicates an antagonistic interaction, and a straight line indicates an additive interaction. Isobole analysis of the combinations of each of artemiside and artemisone in combination with celastrol was performed against HepG2 and LO2 cells respectively. In Figure 5 is presented the isoboles for each drug combination.
# Next, combinations of each of artemiside and artemisone with celastrol were examined, according to the method used to establish additivity/synergism described above. […] Against the normal hepatocyte LO2 cell line, whilst the interaction of artemisone with celastrol was synergistic, that of artemiside was additive. Synergism and additivity were also evident from the linear plots determined from the FIC values of each of the drugs (Table 5 and Figure 6). Thus, synergism is confirmed for combinations of the amino-artemisinins with celastrol against the HepG2 carcinoma cell line, and for artemisone-celastrol against human normal hepatocyte LO2.
# [2] = test system: A549 human lung carcinoma; assay: MTT cytotoxicity assay A549; format: cell-based; details: for SI, selectivity index IC50 normal cell line/IC50 tumour cell line: BEAS-2B/A549; for IC50: Homo sapiens, read-out: IC50 A549
# Method: (§1) Proliferative and non-proliferative mammalian cell lines: human liver and lung cancer cell lines HepG2 and A549, and immortalized normal liver LO2 and lung BEAS-2B cells were purchased from ATCC (Manassas, VA, United States). Cells were cultured in RPMI-1640 medium supplemented with 10% fetal bovine serum and antibiotics penicillin (50 U/mL) and streptomycin (50 μg/ml; Invitrogen, United Kingdom). All cells were incubated at 37°C in a 5% humidified CO2 incubator.
# (§2) All test compounds were dissolved in DMSO at a final concentration of 50 mM and stored at −20°C before use. Cytotoxicity was assessed with A549, HepG2, BEAS-2B and LO2 cells. The MTT assay with 3-(4,5-dimethylthiazole-2yl)-2,5-diphenyltetrazolium bromide (5 mg/ml) was performed as previously described ([Ng et al., 2022]). Briefly, 4 × 10^3 cells per well were seeded in 96-well plates before drug treatment. After overnight cell culture, the cells were exposed to different concentrations of selected compounds (0.19–100 μM) for 72 h. Cells without drug treatment were used as control. Next, 10 μl of the MTT solution was added to each well and incubated at 37°C for another 4 h. Solubilization buffer (100 μl) was then added (10 mM HCl in a solution of 10% of SDS) and incubated overnight. The absorbance A at 570 nm was measured on the next day. The percentage of cell viability was calculated using the following formula: Cell viability (%) = Atreated/Acontrol × 100. Dose response curves for all assays are given in the Supplementary Figures S3–S6.
# (§3) Cytotoxicity was assessed for each of artemisinin, DHA and artemether, and the amino-artemisinins artemiside and artemisone, and celastrol against A549 human lung carcinoma, BEAS-2B non-tumorigenic human bronchial epithelium, HepG2 liver hepatocellular carcinoma and LO2 human normal hepatocytes using the MTT assay ([Ng et al., 2022]). Data are presented in Table 4, and dose response curves are given in the Supplementary Figures S3–S6.
# [3] = test system: HepG2 liver hepatocellular carcinoma; assay: MTT cytotoxicity assay HepG2; format: cell-based, human; details: for IC50: Homo sapiens, read-out: IC50 HepG2; for SI, selectivity index IC50 normal cell line/IC50 tumour cell line: LO2/HepG2
# Method: as §1, §2, §3
# [4] = test system: asexual blood stage Pf NF54; assay: Fixed-ratio isobole drug combination assay (SYBR Green I); format: cell-based, Plasmodium falciparum
# Method: The in vitro interactions of celastrol with artemisone and MB was determined using a fixed-ratio isobole analysis on Pf NF54 asexual parasites (SYBR Green I-based fluorescence). […] The fractional inhibitory concentration (FIC) for each drug in the combination was calculated as follows:
# FIC = IC50 of drug A in combination with drug B/IC50 of drug A
# The paired FIC values for the drugs in each combination were linearly plotted to provide the isobologram. The ΣFIC of FIC of drug A in combination with FIC of drug B was determined by calculating the mean FIC value, to obtain the representative FIC value for the drug combination. Data obtained were analysed in Excel, and sigmoidal dose-response curves and isobolograms were plotted using GraphPad 6.0. Experiments were performed in triplicate, and repeated 3 times.
# As previously recorded for each of artemiside and artemisone in combination with MB ([Coertzen et al., 2018]), drug-drug interactions were monitored through evaluation of fractional inhibitory concentration (FIC) as determined by isobolograms. A mean ΣFIC<1.0 represents a synergistic interaction, >1.3 an antagonistic interaction and ΣFIC = 1 an indifferent or additive interaction. Isobologram analysis of the combinations of each of artemisone and MB in combination with celastrol was performed against the asexual stages of Pf NF54 using the SYBR Green I based assay. In Table 3 are shown the calculated FIC values for the independent combinations at each ratio as well as the ∑FIC values for each combination. In Figure 5 are presented the independent isoboles for each drug combination.
# [5] = artemisone:celastrol drug ratio 20:80, LO2
# [6] = artemisone:celastrol drug ratio 40:60, LO2
# [7] = artemisone:celastrol drug ratio 60:40, LO2
# [8] = artemisone:celastrol drug ratio 80:20, LO2
# [9] = artemisone:celastrol drug ratio 20:80, Pf NF54
# [10] = artemisone:celastrol drug ratio 40:60, Pf NF54
# [11] = artemisone:celastrol drug ratio 60:40, Pf NF54
# [12] = artemisone:celastrol drug ratio 80:20, Pf NF54
SMILES,"FIC [1, 5]","FIC [1, 6]","FIC [1, 7]","FIC [1, 8]","SI, selectivity index IC50 normal cell line/IC50 tumour cell line [2]","SI, selectivity index IC50 normal cell line/IC50 tumour cell line [3]","FIC [4, 9]","FIC [4, 10]","FIC [4, 11]","FIC [4, 12]",also measured
"CC1=C(O)C(=O)C=C2C1=CC=C1[C@@]2(C)CC[C@@]2(C)[C@@H]3C[C@](C)(C(=O)O)CC[C@]3(C)CC[C@]12C [Celastrol, celastrol]",0.7,0.4,0.29,0.23,0.16,0.83,0.93,0.76,0.60,0.50,"FIC ([1]; artemiside:celastrol drug ratio 20:80, LO2): 1.2; FIC ([1]; artemiside:celastrol drug ratio 40:60, LO2): 1.56; FIC ([1]; artemiside:celastrol drug ratio 60:40, LO2): 1.03; FIC ([1]; artemiside:celastrol drug ratio 80:20, LO2): 0.48; IC50 ([2]; A549, 72 h): 2830 ± 120 nM; IC50 ([3]; HepG2, 72 h): 940 ± 100 nM; SI, selectivity index IC50 normal cell line/IC50 tumour cell line ([3]; listed as celastrol): < 1; FIC ([4]; MB:celastrol drug ratio 40:60, Pf NF54): 1.02; FIC ([4]; MB:celastrol drug ratio 60:40, Pf NF54): 0.72; FIC ([4]; MB:celastrol drug ratio 80:20, Pf NF54): 0.41"
"C[C@H]1[C@H](N2CCS(=O)(=O)CC2)O[C@@H]2O[C@@]3(C)CC[C@H]4[C@H](C)CC[C@@H]1[C@@]24OO3 [Artemisone, artemisone]",0.18,0.28,0.47,0.99,<0.7,>171,0.12,0.24,0.39,0.69,"IC50 ([2]; A549, MTT, 72 h, ± SD): > 100000 nM; IC50 ([3]; HepG2, MTT, 72 h, ± SD): 580 ± 200 nM; SI, selectivity index IC50 normal cell line/IC50 tumour cell line ([3]; listed as artemisone): > 170"
